Converted amounts (≈) assume the structure as drawn. Where two headings read alike, the source gives them in different places.
Key:
[1] = test system: E. faecalis ATCC 29212; assay: MIC/MBC according to EUCAST guidelines; type: cell-based; conditions: Enterococcus faecalis, ATCC29212
Experimental: (§1) The antimicrobial activities of the selected compounds against several Gram-negative and Gran-positive representative species of normal human microbiota were determined according to the EUCAST guidelines. Briefly, standardized inoculums (0.5 McFarland) were freshly prepared from overnight Mueller–Hinton agar plates of reference strains E. coli ATCC 25922, K. pneumonia ATCC 700603, E. faecalis ATCC 29212, S. aureus ATCC 29213, S. epidermidis ATCC 12228, and S. agalactiae ATCC 12386. Next, bacterial suspensions adjusted to 5 × 10^5 CFU/mL in Mueller–Hinton broth were exposed to a range of concentrations from 64 to 0.031 mg/L of the selected compounds. DMSO and conventional antibiotics LVX and AMP were included as controls. […] Experiments were performed twice in triplicate.

[2] = test system: E. coli ATCC 25922; assay: MIC/MBC according to EUCAST guidelines; type: cell-based; conditions: Escherichia coli, ATCC25922
Experimental: as §1

[3] = test system: S. aureus ATCC 29213; assay: MIC/MBC according to EUCAST guidelines; type: cell-based; conditions: Staphylococcus aureus, ATCC29213
Experimental: as §1

[4] = test system: S. agalactiae ATCC 12386; assay: MIC/MBC according to EUCAST guidelines; type: cell-based; conditions: Streptococcus agalactiae, ATCC12386
Experimental: as §1

[5] = test system: S. epidermidis ATCC 12228; assay: MIC/MBC according to EUCAST guidelines; type: cell-based; conditions: Staphylococcus epidermidis, ATCC12228
Experimental: as §1

[6] = test system: C. jejuni ATCC 33560; assay: MIC/MBC, broth microdilution; type: cell-based; conditions: Campylobacter jejuni, ATCC33560, C. jejuni ATCC 33560
Experimental: (§2) The antimicrobial activity of the HsrA inhibitors was evaluated by the determination of the minimal inhibitory concentration (MIC) against four different strains of H. pylori: ATCC 700392 (aka 26695), ATCC 43504 (MTZ-resistant reference strain), ATCC 700684 (CLR-resistant reference strain), and Donostia 2 (LVX-resistant clinical isolate). The MICs were determined by the broth microdilution method, as previously described. Briefly, H. pylori strains were grown in blood agar at 37 °C for 72 h under microaerobic conditions. Fresh inoculums adjusted at OD600 = 0.01 [~10^6 colony forming units (CFU) per mL] in BHI broth supplemented with 4% fetal bovine serum (BHI + FBS) were prepared and immediately exposed to final concentrations between 64 and 0.031 mg/L of each compound of interest. The compound solvent (DMSO) as well as conventional antibiotics (MTZ, CLR, LVX) were included as controls. […] Each experiment was performed twice in triplicate. The MIC and MBC values of the selected compounds against C. jejuni ATCC 33560 were determined by using the same method and culture conditions described for the H. pylori strains.

[7] = test system: H. pylori HsrA; assay: Fluorescence-based thermal shift assay (HTS of Maybridge HitFinder library) for HsrA ligands; type: binding, Helicobacter pylori; conditions: 10 µM HsrA, 250 μM compound, vs DMSO controls
Experimental: High-throughput screening (HTS) of the Maybridge HitFinder^TM chemical library for H. pylori HsrA ligands was assessed by a fluorescence-based thermal shift assay, according to previously described procedures. Briefly, a reaction mixture containing 50 mM Tris-HCl (pH 8), 150 mM NaCl, 10% glycerol, 5 mM DTT, SYPRO® Orange ready-to-use fluorescent stain (Thermo Fisher Scientific) at a final concentration of 10 ×, and 10 µM HsrA was freshly prepared. Next, 90 μL was dispensed in every well of V-shape 96-well plates ABgene^TM Thermo-Fast^TM 96 (Thermo Fisher Scientific). Wells of columns 1 and 12 received 10 μL of DMSO (vehicle) and were used as the reference controls. The rest of the wells (columns 2 to 11) received 2.5 μL of four different compounds from the HitFinder library (250 μM as final concentration each). The unfolding curve corresponding to each well was registered from 25 °C to 75 °C in 1 °C steps using an Mx3005P™ qPCR System (Agilent Technologies, Inc., Santa Clara, CA, USA), and analyzed by Origin 7.0 (OriginLab, Northampton, MA, USA) using a homemade script that determined the midpoint temperature of unfolding (Tm).

[8] = biological target: HsrA (Helicobacter pylori, UniProt O25684); assay: Isothermal titration calorimetry (ITC) with HsrA; type: binding; conditions: for ΔG: absolute error 0.1; for ΔH: absolute error 0.4
Experimental: Molecular interactions of the selected ligands with proteins HsrA or CosR were studied by isothermal titration calorimetry (ITC), as previously described. Titrations were assessed in a high-sensitivity MicroCal Auto-iTC200 calorimeter (Malvern Panalytical, Malvern, UK). Experiments were carried out at 25 °C in freshly prepared buffer containing 50 mM Tris-HCl [pH 8], 150 mM NaCl, 10% glycerol, and 1% DMSO. A 20 µM solution of protein was located in the calorimetric cell. Then, a sequence of 19 injections of 2 µL volume each with a 200 µM solution of the corresponding ligand was programmed with a time spacing of 150 s, a stirring speed of 750 rpm, and a reference power of 10 µcal/s in the sample cell. Thermodynamic properties such as binding stoichiometry, dissociation constants, and binding enthalpies were calculated by nonlinear least-squares regression data analysis using Origin 7.0 software.

[9] = test system: H. pylori ATCC 43504 (MTZ-R); assay: MIC/MBC, broth microdilution; type: cell-based, Helicobacter pylori; conditions: Helicobacter pylori, ATCC43504
Experimental: as §2

[10] = test system: H. pylori ATCC 700684 (CLR-R); assay: MIC/MBC, broth microdilution; type: cell-based, Helicobacter pylori; conditions: Helicobacter pylori; for MBC: ATCC700684, read-out: MBC; for MIC: ATCC700684, read-out: MIC
Experimental: as §2

[11] = test system: H. pylori ATCC 700392 (26695); assay: MIC/MBC, broth microdilution; type: cell-based, Helicobacter pylori; conditions: Helicobacter pylori, ATCC700392
Experimental: as §2

[12] = test system: H. pylori Donostia 2 (LVX-R); assay: MIC/MBC, broth microdilution; type: cell-based, Helicobacter pylori; conditions: Helicobacter pylori
Experimental: as §2

[13] = test system: H. pylori; assay: MIC across the four H. pylori strains tested (text summaries); type: cell-based, Helicobacter pylori; conditions: for MIC: Helicobacter pylori
Experimental: as §2

[14] = H. pylori ATCC 43504 (MTZ-R), read-out: MBC
[15] = H. pylori ATCC 43504 (MTZ-R), read-out: MIC
[16] = H. pylori ATCC 700392 (26695), read-out: MBC
[17] = H. pylori ATCC 700392 (26695), read-out: MIC
[18] = H. pylori Donostia 2 (LVX-R), read-out: MBC
[19] = H. pylori Donostia 2 (LVX-R), read-out: MIC
[20] = four strains incl. CLR-, MTZ- and LVX-resistant, read-out: MIC against all H. pylori strains tested
[21] = ITC, 25 °C, pH 8, relative error 15%, read-out: Kd

Chain of HsrA (O25684 entry or part of it): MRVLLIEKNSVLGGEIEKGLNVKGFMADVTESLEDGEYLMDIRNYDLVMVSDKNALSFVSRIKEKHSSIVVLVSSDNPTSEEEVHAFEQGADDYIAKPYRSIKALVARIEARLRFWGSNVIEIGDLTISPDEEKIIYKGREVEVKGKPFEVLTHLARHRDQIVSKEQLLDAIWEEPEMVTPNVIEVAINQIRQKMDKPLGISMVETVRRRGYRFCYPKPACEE

CSc1cccc(NC(=S)NCCNc2c([N+](=O)[O-])cc(C(F)(F)F)cc2[N+](=O)[O-])c1 [Ligand IV]
MBC [1]: > 64 µg/mL | MIC [1]: > 64 µg/mL | MBC [2]: > 64 µg/mL | MIC [2]: > 64 µg/mL | MBC [3]: > 64 µg/mL | MIC [3]: > 64 µg/mL | MBC [4]: > 64 µg/mL | MIC [4]: > 64 µg/mL | MBC [5]: > 64 µg/mL | MIC [5]: > 64 µg/mL | MBC [6]: > 64 µg/mL | MIC [6]: 64 µg/mL (≈ 135 µM) | ΔTm (upshift of midpoint temperature of unfolding of HsrA) [7]: 16 °C | Kd [8]: 3.9 µM | n (stoichiometry) ([8]; ITC, 25 °C, pH 8): 0.9 | ΔG ([8]; ITC, 25 °C): –7.4 kcal/mol | ΔH ([8]; ITC, 25 °C): –1.6 kcal/mol | MBC [9, 14]: 4 µg/mL (≈ 8.41 µM) | MIC [9, 15]: 2 µg/mL (≈ 4.21 µM) | MBC [10]: 4 µg/mL (≈ 8.41 µM) | MIC [10]: 4 µg/mL (≈ 8.41 µM) | MBC [11, 16]: 4 µg/mL (≈ 8.41 µM) | MIC [11, 17]: 2 µg/mL (≈ 4.21 µM) | MBC [12, 18]: 4 µg/mL (≈ 8.41 µM) | MIC [12, 19]: 4 µg/mL (≈ 8.41 µM) | MIC [13, 20]: 0.031 to 4 µg/mL (≈ 0.0652 to 8.41 µM)

N#Cc1cnn(-c2ccc(C(F)(F)F)cc2[N+](=O)[O-])c1N [Ligand I]
MBC [1]: > 64 µg/mL | MIC [1]: > 64 µg/mL | MBC [2]: > 64 µg/mL | MIC [2]: > 64 µg/mL | MBC [3]: > 64 µg/mL | MIC [3]: > 64 µg/mL | MBC [4]: 64 µg/mL (≈ 215 µM) | MIC [4]: 32 µg/mL (≈ 108 µM) | MBC [5]: > 64 µg/mL | MIC [5]: > 64 µg/mL | MBC [6]: 32 µg/mL (≈ 108 µM) | MIC [6]: 32 µg/mL (≈ 108 µM) | n (stoichiometry) ([8]; ITC, 25 °C, pH 8): 1.0 | Kd [8, 21]: 13 µM | ΔG ([8]; ITC, 25 °C): –6.7 kcal/mol | ΔH ([8]; ITC, 25 °C): –1.2 kcal/mol | MBC [9, 14]: 1 µg/mL (≈ 3.36 µM) | MIC [9, 15]: 1 µg/mL (≈ 3.36 µM) | MBC [10]: 4 µg/mL (≈ 13.5 µM) | MIC [10]: 4 µg/mL (≈ 13.5 µM) | MBC [11, 16]: 4 µg/mL (≈ 13.5 µM) | MIC [11, 17]: 4 µg/mL (≈ 13.5 µM) | MBC [12, 18]: 2 µg/mL (≈ 6.73 µM) | MIC [12, 19]: 2 µg/mL (≈ 6.73 µM) | MIC [13, 20]: 0.031 to 4 µg/mL (≈ 0.104 to 13.5 µM)

NC(=NOC(=O)Nc1ccc(Cl)cc1)c1csc([N+](=O)[O-])c1 [Ligand V, N′-{[(4-chloroanilino)carbonyl]}oxy-5-nitrothiophene-3-carboximidamide]
MBC [1]: > 64 µg/mL | MIC [1]: > 64 µg/mL | MBC [2]: > 64 µg/mL | MIC [2]: > 64 µg/mL | MBC [3]: > 64 µg/mL | MIC [3]: > 64 µg/mL | MBC [4]: > 64 µg/mL | MIC [4]: > 64 µg/mL | MBC [5]: > 64 µg/mL | MIC [5]: > 64 µg/mL | MBC [6]: ≤ 0.5 µg/mL | MIC [6]: ≤ 0.5 µg/mL | Affinity to HsrA relative to ligand XII ([8]; ITC): > 3 fold | n (stoichiometry) ([8]; ITC, 25 °C, pH 8): 1.0 | Kd [8, 21]: 13 µM | ΔG ([8]; ITC, 25 °C): –6.7 kcal/mol | ΔH ([8]; ITC, 25 °C): –1.9 kcal/mol | MBC [9]: 0.125 µg/mL (≈ 0.367 µM) | MIC [9]: 0.125 µg/mL (≈ 0.367 µM) | MBC [10]: 0.031 µg/mL (≈ 0.091 µM) | MIC [10]: 0.031 µg/mL (≈ 0.091 µM) | MBC [11]: 0.125 µg/mL (≈ 0.367 µM) | MIC [11]: 0.063 µg/mL (≈ 0.185 µM) | MBC [12]: 0.125 µg/mL (≈ 0.367 µM) | MIC [12]: 0.125 µg/mL (≈ 0.367 µM) | MIC ([13]; read-out: MIC against all H. pylori strains tested, four strains incl. CLR-, MTZ- and LVX-resistant): 0.031 to 0.125 µg/mL (≈ 0.091 to 0.367 µM) | MIC [13, 20]: 0.031 to 4 µg/mL (≈ 0.091 to 11.7 µM) | Antimicrobial potency relative to ligand XII ([13]; same H. pylori strains): at least 4 fold | Antimicrobial potency relative to metronidazole ([13]; same H. pylori strains): more than 10 fold

Reference: PMC11432330, “Novel Drug-like HsrA Inhibitors Exhibit Potent Narrow-Spectrum Antimicrobial Activities against Helicobacter pylori” (International Journal of Molecular Sciences, 2024)
